The values below come from US20070184098A1, “Esters of flavonoids with w-substituted c6-c22 fatty acids” (priority 2003, published 2007).

Where “and” joins values, the source holds several entries; their conditions need not be identical. Equal values may be shown once. Read-outs that look alike come from different tables or passages of the source.

The subject of one series is Human keratinocytes. In words: UVB cytophotoprotection and anti-inflammatory effect (DNA, LDH and PGE2 released) on UVB-irradiated human keratinocytes. Format: cell-based. To be noted: UVB 50 mJ/cm2; for Keratinocytes DNA: irradiated control = 23, not irradiated = 100; for LDH released / PGE2 released: irradiated control = 100, not irradiated = 0. An excerpt: The arachidonic cascade is an important mechanism of cutaneous inflammation. This cascade may be induced by several factors, particularly by UVB irradiation. UVB induces the inflammatory response by activation of phospholipase A2 (PLA2), which results in a release of arachidonic acid from cell membranes. Then other specific enzymes (so called cyclo-oxygenases) transform arachidonic acid in active components called prostaglandin (PG) which are secreted from the cells. The fixation of certain prostaglandins (PGE2) on specific skin receptors is followed by redness and swelling on human skin. On cultured human cells, these UVB effects on cell's membrane are associated with a release of a cytoplasmic enzyme into the supernatant medium: Lactate Dehydrogenase or LDH.
Human keratinocytes were inoculated with growth medium (DMEM+FCS) and incubated 3 days at 37° C. and 5% CO2. The growth medium was then exchanged with balanced salt solution containing the ingredient to be tested, the cell culture was irradiated by UVB 50 mJ/cm^2 (DUKE GL40E lamp). After 1 day of incubation at 37° C. with 5% CO2, LDH and PGE2 released in the medium were determined, and cellular DNA was measured using a fluorescent probe to determine the cell viability.
A general note: Release of lactate dehydrogenase indicates damage to the cell membrane.

In the next series the target is Lipoxygenase. Nature of the series: Anti-free radical activity: superoxide anions released by lipoxygenase, Luminol probe. Format: biochemical. To be noted: mean of 2 assays; lipoxygenase with unsaturated fatty acid substrate. The procedure: The anti-free radical (anti-FR) activity has been evaluated by biochemical tests to address the potential for scavenging superoxide anion (O2°).
Lipoxygenase was incubated with a specific substrate (unsaturated fatty acid) and the flavonoid esters. Then the rate of released superoxide anions was determined using Luminol luminescent probe to calculate the IC50 (mean of 2 assays).

In a further series the test system is Human fibroblasts. In words: UVA cytophotoprotection, anti-oxidative effect (MDA released, cell proteins, GSH) on UVA-irradiated human fibroblasts. The series is classed as cell-based. To be noted: UVA 20 J/cm2; for Cell GSH/protein ratio: irradiated control = 78, not irradiated = 100; for MDA released: irradiated control = 100, not irradiated = 0; for Cell proteins: irradiated control = 107, not irradiated = 100. Here is the method:
The cytoprotection against UVA irradiation has been evaluated by a test on human fibroblasts because UVA radiation penetrates through the epidermis until the dermis where it induces oxidative stress, mainly by activation of photosensitising biological components, which catalyse the formation of ROS like anion superoxide, hydrogen peroxide and singlet oxygen, and lipoperoxydation of the cell membrane. These oxidative stress effects are evaluated in vitro due to measuring of the level of released MDA (malondialdehyde) and of intracellular GSH (reduced glutathion) (Morliere P., Moisan A., Santus R., Huppe G., Mazière J. C., Dubertret L.: UV-A induced lipid peroxydation in cultured human fibroblasts Biochim. Biophys. Acta (1991) 1084, 3:261-269).
The lipoperoxides formed after UVA irradiation undergo a decay into malondialdehyde which can form cross-links between many biological molecules like proteins with inhibition of enzymes and nucleic bases with risk of mutagenesis. Glutathione (GSH) is a peptide produced by the cells to protect them from oxidative stress or certain pollutants like mercury or lead. An increase in the GSH level enhances the activity of glutathion-S-transferase, a detoxification enzyme. GSH is evaluated according to the method of Hissin (Hissin P. J., Hilf R. A fluorometric method for determination of oxydised and reduced Glutathione in tissues. Analytical Biochemistry (1977) vol 74, pp 214-226).
Human fibroblasts were inoculated with growth medium (DMEM+FCS) and incubated 3 days at 37° C., with 5% CO2. The growth medium was then exchanged with medium containing an ingredient to be tested and incubated 2 days at 37° C. with CO2=5%. After an exchange of medium with balanced salt solution, the cell culture was irradiated by UVA 20 J/cm^2. Cell proteins and GSH were measured, and MDA released in the supernatant was determined spectrophotometrically.

Series [1] can be described thus: Solubility in hydrophilic and lipophilic solvent by HPLC. The series is classed as physicochemical. Conditions: stirring 1 hour at room temperature; for solubility at 1 h: thermodynamic from solid. The procedure: The solubility was determined by HPLC measurement after stirring during 1 hour at room temperature.

As a reminder, the solubility is the concentration that dissolves in the medium under given conditions.

Take `CC1OC(OCC2OC(Oc3c(-c4ccc(O)c(O)c4)oc4cc(O)cc(O)c4c3=O)C(O)C(O)C2O)C(O)C(O)C1OC(=O)CCCCCCCCCCCCCCC(=O)OC1C(C)OC(OCC2OC(Oc3c(-c4ccc(O)c(O)c4)oc4cc(O)cc(O)c4c3=O)C(O)C(O)C2O)C(O)C1O` (centres unmarked) [Dirutin hexadecandioate, dirutin hexadecandioate]: in the series with Human keratinocytes (dose 0.001 % w/v), the “Keratinocytes DNA” value was determined as 38 % against control, the LDH released is 44 % against control and the PGE2 released is reported as 3 % against control. In addition, in the series on Human keratinocytes (dose 0.003 % w/v), the “Keratinocytes DNA” value came out at 35 % against control, the LDH released amounted to 33 % against control and the PGE2 released amounted to 1 % against control. On Lipoxygenase, the “IC50 (w/v), released superoxide anions” value came out at 0.0028 w/v. In the series with Human fibroblasts (dose 0.001 % w/v), the “Cell GSH/protein ratio” value stood at 98 % against control, the MDA released was determined as 39 % against control and the Cell proteins is recorded as 138 % against control. Further, in the series with Human fibroblasts (dose 0.003 % w/v), the “Cell GSH/protein ratio” value came out at 154 % against control, the MDA released is reported as 9 % against control and the Cell proteins was found to be 149 % against control.
For `CC1OC(OCC2OC(Oc3c(-c4ccc(O)c(O)c4)oc4cc(O)cc(O)c4c3=O)C(O)C(O)C2O)C(O)C(O)C1OC(=O)CCCCCCCCCCS` (centres unmarked) [Rutin 11-mercaptoundecanoate], in series [1], the “Solubility in butylene glycol” value is 54.5 g/L and 67.2 mM; the Solubility in octyl-dodecanol was 0.15 g/L and 0.19 mM. Also, in the series with Human keratinocytes (dose 0.0001 % w/v), the “Keratinocytes DNA” value turned out to be 44 % against control, the LDH released was 75 % against control and the PGE2 released was determined as 26 % against control. For the same compound, in the series with Human keratinocytes (dose 0.0003 % w/v), the “Keratinocytes DNA” value worked out at 41 % against control, the LDH released turned out to be 92 % against control and the PGE2 released came out at 12 % against control. Besides, in the series with Human fibroblasts (dose 0.001 % w/v), the “Cell GSH/protein ratio” value amounted to 131 % against control, the MDA released is reported as 34 % against control and the Cell proteins is on record as 94 % against control. In addition, in the series with Human fibroblasts (dose 0.003 % w/v), the “Cell GSH/protein ratio” value is given as 283 % against control, the MDA released was 0 % against control and the Cell proteins came out at 89 % against control.
As to `CC1OC(OCC2OC(Oc3c(-c4ccc(O)c(O)c4)oc4cc(O)cc(O)c4c3=O)C(O)C(O)C2O)C(O)C(O)C1OC(=O)CCCCCCCC(=O)O` (centres unmarked) [Rutin azelaiate], in the series on Human keratinocytes (dose 0.003 % w/v), the “Keratinocytes DNA” value stood at 51 % against control, the LDH released came out at 45 % against control and the PGE2 released is 28 % against control. Further, in the series with Human keratinocytes (dose 0.01 % w/v), the “Keratinocytes DNA” value was determined as 53 % against control, the LDH released is 27 % against control and the PGE2 released turned out to be 19 % against control. Besides, the “IC50 (w/v), released superoxide anions” value at Lipoxygenase stood at 0.0025 w/v. Also, in the series on Human fibroblasts (dose 0.001 % w/v), the “Cell GSH/protein ratio” value was found to be 67 % against control, the MDA released was 78 % against control and the Cell proteins is given as 144 % against control. Besides, in the series on Human fibroblasts (dose 0.003 % w/v), the “Cell GSH/protein ratio” value is 64 % against control, the MDA released was determined as 64 % against control and the Cell proteins came to 165 % against control.
For `C[C@@H]1O[C@@H](OC[C@H]2O[C@@H](Oc3c(-c4ccc(O)c(O)c4)oc4cc(O)cc(O)c4c3=O)[C@H](O)[C@@H](O)[C@@H]2O)[C@H](O)[C@H](O)[C@H]1O` [Rutin, reference compound], the solubility at 1 h was 22600 µg/mL and 37100 µM in series [1] (butylene glycol, organic solvent or mixture, read-out: Solubility in butylene glycol); 30 µg/mL and 50 µM in series [1] (octyl-dodecanol, oil or lipid, read-out: Solubility in octyl-dodecanol); 160 µg/mL and 270 µM in series [1] (water, read-out: Solubility in water). Further, the “Keratinocytes DNA” value in the series on Human keratinocytes (dose 0.03 % w/v) was 69 % against control; with Human keratinocytes (dose 0.1 % w/v), 73 % against control. Moreover, the LDH released in the series on Human keratinocytes (dose 0.03 % w/v) turned out to be 17 % against control; in the series on Human keratinocytes (dose 0.1 % w/v), 18 % against control. The PGE2 released with Human keratinocytes (dose 0.03 % w/v) turned out to be 0 % against control; in the series with Human keratinocytes (dose 0.1 % w/v) it was 10 % against control. Besides, the results for the “Cell GSH/protein ratio” value in the series on Human fibroblasts (dose 0.003 % w/v) and in the series on Human fibroblasts (dose 0.01 % w/v) were 72 % against control and 71 % against control, respectively. Besides, the values for the MDA released with Human fibroblasts (dose 0.003 % w/v) and in the series with Human fibroblasts (dose 0.01 % w/v) were 79 % against control and 72 % against control, respectively. In addition, the Cell proteins was 126 % against control in the series with Human fibroblasts (dose 0.003 % w/v) and 128 % against control in the series on Human fibroblasts (dose 0.01 % w/v).
With Rutin octadecandioate, in the series with Human keratinocytes (dose 0.001 % w/v), the “Keratinocytes DNA” value is given as 23 % against control, the LDH released came to 73 % against control and the PGE2 released came out at 28 % against control. Moreover, in the series with Human keratinocytes (dose 0.003 % w/v), the “Keratinocytes DNA” value stood at 49 % against control, the LDH released is reported as 31 % against control and the PGE2 released came to 3 % against control. The “IC50 (w/v), released superoxide anions” value on Lipoxygenase is 0.0034 w/v. For the same compound, in the series with Human fibroblasts (dose 0.001 % w/v), the “Cell GSH/protein ratio” value was 73 % against control, the MDA released amounted to 46 % against control and the Cell proteins came to 139 % against control. Besides, in the series with Human fibroblasts (dose 0.003 % w/v), the “Cell GSH/protein ratio” value came out at 122 % against control, the MDA released is reported as 15 % against control and the Cell proteins was found to be 133 % against control.
